Assay results: patent US20240325533A1, “MODIFIED IMMUNE CELLS AND METHODS OF USING THE SAME” (Beam Therapeutics Inc., priority 2021, published 2024)

Tests used:
SKOV3 or H226 cells = assay: IFNγ production of EGFR CAR-Ts with HIF1α edits co-cultured with tumor cells in 1% O2; type: cell-based; conditions: 1 to 1 E:T ratio, 1% O2, 48 hours, vs unedited EGFR CAR-T cells, FIG. 10
Procedure: FIG. 10 provides bar graphs depicting IFNγ production (pg/mL) after EGFR CAR-Ts with HIF1α edits were co-cultured at 1 to 1 E:T ratio with either SKOV3 or H226 cells in 1% O2 for 48 hours. HIF1α was edited using guides g170 and g173. Electroporation (EP) only was used as a control. EGFR CAR-T cells with HIF1α knockout edits produced more cytokine under hypoxic stress than unedited EGFR CAR-T cells.

EGFR-specific CAR = assay: CAR expression by flow cytometry after editing (anti-idiotype antibody staining); type: cell-based, human
From the text: FIGS. 4A-4C provide flow cytometry graphs and bar graphs. FIGS. 4A and 4B depict CAR expression after editing A2A, HIF1α, and A2B target sites in CAR-T cells using guides. FIG. 4A provides flow cytometry graphs depicting CAR expression controls for electroporation (EP) only and untransduced (UTD) CAR-T cells. FIG. 4B are flow cytometry graphs depicting CAR expression of edited A2AR target sites using guides g145, g155, and Cas9 (top), edited HIF1α target sites using guides g168, g170, and g173 (middle), and edited A2B target sites using guides g221, g222, and Cas9 (bottom). FIG. 4C is a bar graph quantifying the CAR expression observed in the flow cytometry graphs of FIG. 4B. Consistent 60% CAR expression was seen across all guides and editing targets. There was no observed impact of editing on CAR expression.
FIG. 19A provides a bar graph showing base editing of the ADORA2A gene quantified via next generation sequencing (NGS). […] FIG. 19D provides a schematic providing an overview of a process for generating multiplex base edited EGFR-targeting ARC T cells. In FIG. 19B, each set of three bars correspond to, from left-to-right, TCR, HLA Class I, and HLA Class II. In FIGS. 19A-19D, “Base Editing Guide 1” […] indicates cells edited using the base editor ABE8.20 in combination with the guide sgRNA145 (see Table 1A), “Base Editing Guide 2” (BE2) indicates cells edited using the base editor ABE8.20 in combination with the guide sgRNA155, and “CRISPR Guide” indicates cells edited using a CRISPR guide and editor known to be effective in knocking out expression of A2AR.
FIG. 25 provides a set of flow cytometry scatter plots showing chimeric antigen receptor expression in EGFR-targeting CAR-T cells edited to knock out expression of the indicated polypeptides (i.e., A2AR, PD1, TGFbRII, or combinations thereof). At the end of culturing, T cells were stained with an anti-idiotype antibody. […] was knocked out using the guide TSBTx2043, PD1 expression was knocked out using the guide TSBTx025, TGFbR expression was knocked out using the guide TSBTx5277, and “Triple KO” cells were editing using all three guides (see Table 1B).

pCREB = pCREB expression (flow cytometry) in A2AR knockout T cells treated with CADO; type: cell-based; conditions: 30 μM CADO vs DMSO, FIG. 14
Procedure: FIG. 14 provides histograms depicting expression of pCREB in A2AR knockout T cells using guides g145 and g155. Cas9 and Electroporation (EP) only were used as controls. In the plots, the darker-grey histogram corresponds to DMSO and the lighter-grey histogram corresponds to 30 μM CADO. […] Throughout the figures, the term “CADO” represents 2-chloroadenosine.
FIGS. 20A-20E provide flow cytometry histograms, bar graphs, a plot, and images showing adenosine-resistant CAR-T cells (CAR-T cells) were protected from adenosine-mediated suppression in vitro. […] H266 cells expressing GFP were plated in ultra-low adherent 96-well plates and incubated at 36° C. for 3 days to allow for spheroid formation. Then, untransduced cells (UTD), ARC T cells, or CAR T cells expressing TCR, HLA Class I, HLA Class II, and ADAR were added to the wells at a 1:2 effector to target ratio (E:T) with 0 μM adenosine. Plates were then placed in an Incucyte live imaging analysis instrument and cytotoxicity was measured via reduction in GFP+ spheroid volume over time. […]

IFNγ production = IFNγ production of A2AR knockout T cells in the presence of CADO / extracellular adenosine; type: cell-based; conditions: normalized to 0 μM CADO (DMSO only), FIG. 15
Procedure: FIG. 15 presents bar graphs depicting IFNγ production after 48 hours in A2AR knockout T cells using guides g145 and g155. The data shown in FIG. 15 is normalized to IFNγ production in 0 μM CADO (DMSO only treatment). A2A knockout protected CAR-T cells from adenosine-mediated cytokine suppression.
FIGS. 20A-20E provide flow cytometry histograms, bar graphs, a plot, and images showing adenosine-resistant CAR-T cells (CAR-T cells) were protected from adenosine-mediated suppression in vitro. […] H266 cells expressing GFP were plated in ultra-low adherent 96-well plates and incubated at 36° C. for 3 days to allow for spheroid formation. Then, untransduced cells (UTD), ARC T cells, or CAR T cells expressing TCR, HLA Class I, HLA Class II, and ADAR were added to the wells at a 1:2 effector to target ratio (E:T) with 0 μM adenosine. Plates were then placed in an Incucyte live imaging analysis instrument and cytotoxicity was measured via reduction in GFP+ spheroid volume over time. In FIGS. 19A-19D, “BE KO1” indicates cells edited using the base editor ABE8.20 in combination with the guide sgRNA145 (see Table 1A), “BE KO2” indicates cells edited using the base editor ABE8.20 in combination with the guide sgRNA155, and “CRISPR KO” indicates cells edited using a CRISPR guide and editor known to be effective in knocking out expression of A2AR.

[1] = after editing A2A, HIF1α, and A2B target sites in CAR-T cells, FIG. 4C

Substance: ACACAGGUAUUGCACUGCAC (chemistry not given here) [sgRNA170, guide RNA spacer; HIF1α; ABE; Ex6 SA (Pos 5)]
- IFNγ production (SKOV3 or H226 cells): more cytokine
- CAR expression (EGFR-specific CAR; [1]): 60%

Substance: CUGCUCACCGGAGCGGGAUG (chemistry not given here) [sgRNA145, guide RNA spacer; A2AR; CBE; Ex1 SD (Pos 8)]
- upregulation of downstream pCREB (pCREB): no upregulation
- CAR expression (EGFR-specific CAR; [1]): 60%
- IFNγ production after 48 hours (adenosine-mediated cytokine suppression) (IFNγ production): protected

Substance: GGCCAUGCUGCUGGAGACAC (chemistry not given here) [sgRNA221, guide RNA spacer; A2BR; ABE; Ex1 START (Pos 5)]
- CAR expression (EGFR-specific CAR; [1]): 60%

Substance: TSBTx5277: guide used with Cas12b to knock out TGFbR2 (guide CCCAGAGCACCAGAGCCAUGGA; listed as RNA, chemistry not given here)
- CAR expression (EGFR-specific CAR; EGFR-targeting CAR-T cells with A2AR, PD1, TGFbRII knock-out or combinations, anti-idiotype antibody, FIG. 25): No differences

Substance: UCACCUGAGCGGGACACAGA (chemistry not given here) [sgRNA222, guide RNA spacer; A2BR; Ex1 SD (Pos 4); used with CBE]
- CAR expression (EGFR-specific CAR; [1]): 60%

Substance: UCUCCCCAGGUACAAUGGCU (chemistry not given here) [sgRNA155, guide RNA spacer; A2AR; ABE (ABE8.20); Ex2 SA (Pos 8)]
- upregulation of downstream pCREB (pCREB): no upregulation
- CAR expression (EGFR-specific CAR; [1]): 60%
- IFNγ production after 48 hours (adenosine-mediated cytokine suppression) (IFNγ production): protected

Substance: UGUUUACAGUUUGAACUAAC (chemistry not given here) [sgRNA168, guide RNA spacer; HIF1α; ABE; Ex4 SA (Pos 8)]
- CAR expression (EGFR-specific CAR; [1]): 60%

Substance: UUUCAGAACUACAGUUCCUG (chemistry not given here) [sgRNA173, guide RNA spacer; HIF1α; ABE (ABE8.20); Ex13 SA (Pos 5)]
- IFNγ production (SKOV3 or H226 cells): more cytokine
- CAR expression (EGFR-specific CAR; [1]): 60%
